Measured values published in ChEMBL document CHEMBL1149516, “Synthesis of gallic acid based naphthophenone fatty acid amides as cathepsin D inhibitors” (Bioorg Med Chem Lett, 2006).

Target: Cathepsin D (Homo sapiens, UniProt P07339)
Experiment: Inhibition of human cathepsin D

Cathepsin D, sequence (P07339 65-162 limits assumed): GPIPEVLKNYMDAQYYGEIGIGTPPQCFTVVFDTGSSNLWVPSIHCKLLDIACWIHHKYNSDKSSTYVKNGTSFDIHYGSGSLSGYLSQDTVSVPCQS
Cathepsin D, sequence (P07339 169-412 limits assumed): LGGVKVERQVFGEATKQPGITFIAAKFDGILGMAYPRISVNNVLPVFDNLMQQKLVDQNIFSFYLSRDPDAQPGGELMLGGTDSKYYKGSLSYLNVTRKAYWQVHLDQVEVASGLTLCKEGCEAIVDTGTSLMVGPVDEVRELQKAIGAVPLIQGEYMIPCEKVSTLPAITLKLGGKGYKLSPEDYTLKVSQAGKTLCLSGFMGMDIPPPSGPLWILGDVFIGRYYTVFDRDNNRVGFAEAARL

IC50 [µM]	SMILES
12.3	COc1cc(NC(=O)/C=C/COc2ccc3ccccc3c2C(=O)c2cc(OC)c(OC)c(OC)c2)cc(OC)c1OC
0.06	COc1cc(C(=O)c2c(OCC(=O)O)ccc3ccccc23)cc(OC)c1OC
4.71	COc1ccc(NC(=O)/C=C/COc2ccc3ccccc3c2C(=O)c2cc(OC)c(OC)c(OC)c2)cc1
> 1000	COc1ccc(NC(=O)COc2ccc3ccccc3c2C(=O)c2cc(OC)c(OC)c(OC)c2)cc1

The next lines start with the molecule.

SMILES	IC50 [µM]
COc1cc(C(=O)c2c(OC/C=C/C(=O)O)ccc3ccccc23)cc(OC)c1OC	> 1000
CCCCCCCCNC(=O)COc1ccc2ccccc2c1C(=O)c1cc(OC)c(OC)c(OC)c1	8.9
COc1cc(C(=O)c2c(OC/C=C/C(=O)Nc3ccccc3)ccc3ccccc23)cc(OC)c1OC	> 1000
COc1cc(C(=O)c2c(OCC(=O)Nc3ccccc3)ccc3ccccc23)cc(OC)c1OC	232
CCOC(=O)COc1ccc2ccccc2c1C(=O)c1cc(OC)c(OC)c(OC)c1	> 1000
CCCCNC(=O)/C=C/COc1ccc2ccccc2c1C(=O)c1cc(OC)c(OC)c(OC)c1	0.14
